The supplement of paper PMC9663587

Key:
Flavopiridol [1] = compound: T1, CN1CC[C@H](c2c(O)cc(O)c3c(=O)cc(-c4ccccc4Cl)oc23)[C@H](O)C1 [Flavopiridol]
Doxorubicin = compound: COc1cccc2c1C(=O)c1c(O)c3c(c(O)c1C2=O)C[C@@](O)(C(=O)CO)C[C@@H]3O[C@H]1C[C@H](N)[C@H](O)[C@H](C)O1 [Doxorubicin]
Ipatasertib/GDC0068 = compound: CC(C)NC[C@@H](C(=O)N1CCN(c2ncnc3c2[C@H](C)C[C@H]3O)CC1)c1ccc(Cl)cc1 [Ipatasertib/GDC0068]
Luminespib/NVP-AUY922 = compound: CCNC(=O)c1noc(-c2cc(C(C)C)c(O)cc2O)c1-c1ccc(CN2CCOCC2)cc1 [Luminespib/NVP-AUY922]
Olaparib/AZD2281 = compound: O=C(c1cc(Cc2n[nH]c(=O)c3ccccc23)ccc1F)N1CCN(C(=O)C2CC2)CC1 [Olaparib/AZD2281]
ABT-737 = compound: CN(C)CC[C@H](CSc1ccccc1)Nc1ccc(S(=O)(=O)NC(=O)c2ccc(N3CCN(Cc4ccccc4-c4ccc(Cl)cc4)CC3)cc2)cc1[N+](=O)[O-] [ABT-737]
Paclitaxel = compound: CC(=O)O[C@H]1C(=O)[C@@]2(C)[C@H]([C@H](OC(=O)c3ccccc3)[C@]3(O)C[C@H](OC(=O)[C@H](O)[C@@H](NC(=O)c4ccccc4)c4ccccc4)C(C)=C1C3(C)C)[C@]1(OC(C)=O)CO[C@@H]1C[C@@H]2O [Paclitaxel]
Taselisib/GDC0032 = compound: Cc1nc(-c2cn3c(n2)-c2ccc(-c4cnn(C(C)(C)C(N)=O)c4)cc2OCC3)n(C(C)C)n1 [Taselisib/GDC0032]
BSJ-01-175 = compound: CN(C)C/C=C/C(=O)Nc1ccc(O[C@@H]2CCC[C@@H](Nc3ncc(Cl)c(-c4c[nH]c5ccccc45)n3)C2)cc1 [BSJ-01-175]
Flavopiridol [2] = compound: T1, Flavopiridol; experiment: GR value, 72 h; higher = faster growth (1 = untreated, <0 = killing);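 note: breast cancer and non-malignant breast epithelial lines, nine half-log doses, viable cells counted by Hoechst and LIVE/DEAD dye imaging versus time-zero plates and DMSO controls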
LEE011/Ribociclib = compound: CN(C)C(=O)c1cc2cnc(Nc3ccc(N4CCNCC4)cn3)nc2n1C1CCCC1 [LEE011/Ribociclib]; experiment: as above
[3] = compound: CCN1CCN(Cc2ccc(Nc3ncc(F)c(-c4cc(F)c5nc(C)n(C(C)C)c5c4)n3)nc2)CC1; experiment: as above
YKL-5-124 = compound: C=CC(=O)Nc1ccc(C(=O)Nc2[nH]nc3c2CN(C(=O)N[C@H](CN(C)C)c2ccccc2)C3(C)C)cc1 [YKL-5-124]; experiment: as above
BSJ-03-123 = compound: CC(=O)c1c(C)c2cnc(Nc3ccc(N4CCN(CCOCCOCCOCCNC(=O)COc5cccc6c5C(=O)N(C5CCC(=O)NC5=O)C6=O)CC4)cn3)nc2n(C2CCCC2)c1=O [BSJ-03-123]; experiment: as above
[4] = compound: CC(=O)c1c(C)c2cnc(Nc3ccc(N4CCNCC4)cn3)nc2n(C2CCCC2)c1=O; experiment: as above
[5] = compound: CCc1cnn2c(NCc3ccc[n+]([O-])c3)cc(N3CCCC[C@H]3CCO)nc12; experiment: as above
THZ531 = compound: CN(C)C/C=C/C(=O)Nc1ccc(C(=O)N2CCC[C@@H](Nc3ncc(Cl)c(-c4c[nH]c5ccccc45)n3)C2)cc1 [THZ531]; experiment: as above
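Throughout, for GR50, 72 h: breast cancer and non-malignant breast epithelial cell lines, Deep Dye Drop or Dye Drop imaging, nine half-log doses, GR normalized to time-zero plates and DMSO-only controls.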

## SUM190PT
Flavopiridol [1]
  GR50, 72 h: 0.0802 µM
Doxorubicin
  GR50, 72 h: 0.025 µM
Ipatasertib/GDC0068
  GR50, 72 h: > 10 µM
Luminespib/NVP-AUY922
  GR50, 72 h: 0.00558 µM
Olaparib/AZD2281
  GR50, 72 h: > 10 µM
ABT-737
  GR50, 72 h: 0.362 µM
Paclitaxel
  GR50, 72 h: 0.000878 µM
Taselisib/GDC0032
  GR50, 72 h: 0.962 µM
BSJ-01-175
  GR50, 72 h: 0.00573 µM
Flavopiridol [2]; 0.0001 µM
  GR value: 0.999 GR
Flavopiridol [2]; 0.0003162 µM
  GR value: 1.06 GR
Flavopiridol [2]; 0.001 µM
  GR value: 0.935 GR
Flavopiridol [2]; 0.003162 µM
  GR value: 0.883 GR
Flavopiridol [2]; 0.01 µM
  GR value: 0.661 GR
Flavopiridol [2]; 0.03162 µM
  GR value: 0.785 GR
Flavopiridol [2]; 0.1 µM
  GR value: 0.58 GR
Flavopiridol [2]; 0.3162 µM
  GR value: 0.0012 GR
Flavopiridol [2]; 1 µM
  GR value: -0.382 GR
LEE011/Ribociclib; 0.001 µM
  GR value: 0.777 GR
LEE011/Ribociclib; 0.003162 µM
  GR value: 0.632 GR
LEE011/Ribociclib; 0.01 µM
  GR value: 0.576 GR
LEE011/Ribociclib; 0.03162 µM
  GR value: 0.542 GR
LEE011/Ribociclib; 0.1 µM
  GR value: 0.453 GR
LEE011/Ribociclib; 0.3162 µM
  GR value: 0.46 GR
LEE011/Ribociclib; 1 µM
  GR value: 0.0072 GR
LEE011/Ribociclib; 3.162 µM
  GR value: 0.199 GR
LEE011/Ribociclib; 10 µM
  GR value: 0.383 GR
[3]; 0.001 µM
  GR value: 0.779 GR
[3]; 0.003162 µM
  GR value: 0.586 GR
[3]; 0.01 µM
  GR value: 0.444 GR
[3]; 0.03162 µM
  GR value: 0.349 GR
[3]; 0.1 µM
  GR value: 0.395 GR
[3]; 0.3162 µM
  GR value: 0.309 GR
[3]; 1 µM
  GR value: 0.343 GR
[3]; 3.162 µM
  GR value: 0.259 GR
[3]; 10 µM
  GR value: -0.611 GR
YKL-5-124; 0.001 µM
  GR value: 0.557 GR
YKL-5-124; 0.003162 µM
  GR value: 0.365 GR
YKL-5-124; 0.01 µM
  GR value: 0.267 GR
YKL-5-124; 0.03162 µM
  GR value: 0.198 GR
YKL-5-124; 0.1 µM
  GR value: 0.212 GR
YKL-5-124; 0.3162 µM
  GR value: 0.0489 GR
YKL-5-124; 1 µM
  GR value: 0.154 GR
YKL-5-124; 3.162 µM
  GR value: 0.102 GR
YKL-5-124; 10 µM
  GR value: -0.42 GR
BSJ-03-123; 0.001 µM
  GR value: 0.831 GR
BSJ-03-123; 0.003162 µM
  GR value: 0.729 GR
BSJ-03-123; 0.01 µM
  GR value: 0.533 GR
BSJ-03-123; 0.03162 µM
  GR value: 0.491 GR
BSJ-03-123; 0.1 µM
  GR value: 0.451 GR
BSJ-03-123; 0.3162 µM
  GR value: 0.371 GR
BSJ-03-123; 1 µM
  GR value: 0.396 GR
BSJ-03-123; 3.162 µM
  GR value: 0.354 GR
BSJ-03-123; 10 µM
  GR value: -0.286 GR
[4]; 0.0003162 µM
  GR value: 0.986 GR
[4]; 0.001 µM
  GR value: 1.02 GR
[4]; 0.003162 µM
  GR value: 1.09 GR
[4]; 0.01 µM
  GR value: 0.949 GR
[4]; 0.03162 µM
  GR value: 0.62 GR
[4]; 0.1 µM
  GR value: 0.316 GR
[4]; 0.3162 µM
  GR value: 0.35 GR
[4]; 1 µM
  GR value: 0.336 GR
[4]; 3.162 µM
  GR value: 0.378 GR
[5]; 0.0001 µM
  GR value: 0.917 GR
[5]; 0.0003162 µM
  GR value: 0.931 GR
[5]; 0.001 µM
  GR value: 0.951 GR
[5]; 0.003162 µM
  GR value: 1.06 GR
[5]; 0.01 µM
  GR value: 0.98 GR
[5]; 0.03162 µM
  GR value: -0.207 GR
[5]; 0.1 µM
  GR value: -0.627 GR
[5]; 0.3162 µM
  GR value: -0.643 GR
[5]; 1 µM
  GR value: -0.724 GR
THZ531; 0.0001 µM
  GR value: 1.07 GR
THZ531; 0.0003162 µM
  GR value: 0.955 GR
THZ531; 0.001 µM
  GR value: 0.949 GR
THZ531; 0.003162 µM
  GR value: 0.966 GR
THZ531; 0.01 µM
  GR value: 1.12 GR
THZ531; 0.03162 µM
  GR value: 0.889 GR
THZ531; 0.1 µM
  GR value: -0.322 GR
THZ531; 0.3162 µM
  GR value: -0.725 GR
THZ531; 1 µM
  GR value: -0.492 GR
